From patent US10464922B2, “Metalloenzyme inhibitor compounds” (NQP 1598 LTD., priority 2015, dated 2019) come the findings set out here.

Assay [1] relates to A. fumigatus. As to the kind of experiment: A. fumigatus MIC at 100% growth inhibition (CLSI M38-A2). To be noted: 100% growth inhibition, range tested 8-0.0078 μg/mL, values given as ranges; for MIC: Aspergillus fumigatus, read-out: Aspergillus fumigatus MIC. Type of assay: cell-based, Aspergillus fumigatus. Here is the method: A. fumigatus MICs were determined at 100% growth inhibition following CLSI guidelines at a concentration range of 8-0.0078 μg/mL (CLSI M38-A2).

Assay [2] concerns C. albicans (ATCC 90028). Put plainly: Minimum inhibitory concentration, in vitro broth microdilution assay (CLSI M27-A2). Format: cell-based, Candida albicans. The settings on record: ATCC 90028, about 50% growth reduction, 2 days at 36° C., range tested 8-0.0078 μg/mL, values given as ranges; for MIC: Candida albicans, ATCC90028, 48 h, read-out: Candida albicans MIC. A digest of the protocol: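 Inoculum of 1×10^3 to 1×10^4 CFU/mL in RPMI-1640+MOPS, exposed to 11 two-fold serial compound concentrations at 2 percent final DMSO, per CLSI M27-A2. After 2 days at 36° C, wells scored visually for growth to give MIC; tested in duplicate.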

In brackets after ≈: the same amount, converted by molar mass.

Turning to `O=c1[nH]ncn1-c1ccc(N2CCN(c3ccc(-c4ccc(C(F)(F)[C@](O)(Cn5cnnn5)c5ccc(F)cc5F)nc4)cc3)CC2)cc1` [Example 60, (R)-4-(4-(4-(4-(6-(2-(2,4-difluorophenyl)-1,1-difluoro-2-hydroxy-3-(1H-tetrazol-1-yl)propyl)pyridin-3-yl)phenyl)piperazin-1-yl)phenyl)-2,4-dihydro-3H-1,2,4-triazol-3-one], the MIC in assay [1] fell in the range of 0.25 to 1 µg/mL (≈ 0.372 to 1.49 µM); in assay [2] it was 0.0078 to 0.01 µg/mL (≈ 0.0116 to 0.0149 µM).
In the case of `OC(CC(F)(F)F)c1ncc(N2CCN(c3ccc(-c4ccc(C(F)(F)[C@](O)(Cn5cnnn5)c5ccc(F)cc5F)nc4)cc3)CC2)cn1` (stereo partly drawn) [Example 51, 1-(5-(4-(4-(6-((R)-2-(2,4-difluorophenyl)-1,1-difluoro-2-hydroxy-3-(1H-tetrazol-1-yl)propyl)pyridin-3-yl)phenyl)piperazin-1-yl)pyrimidin-2-yl)-3,3,3-trifluoropropan-1-ol], the results for the minimal inhibitory concentration (MIC) in assay [1] and in assay [2] were 1 to 4 µg/mL (≈ 1.42 to 5.68 µM) and 0.0078 to 0.01 µg/mL (≈ 0.0111 to 0.0142 µM), respectively.
For `CCC(C)C(O)c1ccc(N2CCN(c3ccc(-c4ccc(C(F)(F)[C@](O)(Cn5cnnn5)c5ccc(F)cc5F)nc4)cc3)CC2)cn1` (stereo partly drawn) [Example 65, 1-(5-(4-(4-(6-((R)-2-(2,4-difluorophenyl)-1,1-difluoro-2-hydroxy-3-(1H-tetrazol-1-yl)propyl)pyridin-3-yl)phenyl)piperazin-1-yl)pyridin-2-yl)-2-methylbutan-1-ol] the same measures were 0.25 to 1 µg/mL (≈ 0.369 to 1.48 µM) and 0.0078 to 0.01 µg/mL (≈ 0.0115 to 0.0148 µM).
For `N#Cc1ccc(CN2CCN(c3ccc(-c4ccc(C(F)(F)[C@](O)(Cn5cnnn5)c5ccc(F)cc5F)nc4)cc3)CC2)cc1` [Example 17, (R)-4-((4-(4-(6-(2-(2,4-difluorophenyl)-1,1-difluoro-2-hydroxy-3-(1H-tetrazol-1-yl)propyl)pyridin-3-yl)phenyl)piperazin-1-yl)methyl) benzonitrile] the same measures were 1 to 4 µg/mL (≈ 1.59 to 6.36 µM) and 0.0078 to 0.01 µg/mL (≈ 0.0124 to 0.0159 µM).
With `OC(c1cn(-c2ccc(N3CCN(c4ccc(-c5ccc(C(F)(F)[C@](O)(Cn6cnnn6)c6ccc(F)cc6F)nc5)cc4)CC3)cn2)nn1)C(F)(F)F` (stereo partly drawn) [Example 111, (2R)-2-(2,4-difluorophenyl)-1,1-difluoro-3-(1H-tetrazol-1-yl)-1-(5-(4-(4-(6-(4-(2,2,2-trifluoro-1-hydroxyethyl)-1H-1,2,3-triazol-1-yl)pyridin-3-yl)piperazin-1-yl)phenyl)pyridin-2-yl) propan-2-ol], the MIC in assay [1] lay within 0.25 to 1 µg/mL (≈ 0.331 to 1.32 µM); in assay [2], 0.0078 to 0.01 µg/mL (≈ 0.0103 to 0.0132 µM).
Turning to `O=C(Nc1ccc(N2CCN(c3ccc(-c4ccc(C(F)(F)[C@](O)(Cn5cnnn5)c5ccc(F)cc5F)nc4)cc3)CC2)cc1)C(O)CC(F)(F)F` (stereo partly drawn) [Example 105, N-(4-(4-(4-(6-((R)-2-(2,4-difluorophenyl)-1,1-difluoro-2-hydroxy-3-(1H-tetrazol-1-yl)propyl)pyridin-3-yl)phenyl)piperazin-1-yl)phenyl)-4,4,4-trifluoro-2-hydroxybutanamide], the MIC in assay [1] was more than 8 µg/mL; in assay [2], 0.0078 to 0.01 µg/mL (≈ 0.0105 to 0.0134 µM).
Consider `CC[C@@H]([C@H](C)O)n1ncn(-c2ccc(N3CCN(c4ccc(-c5ccc(C(F)(F)C(O)(Cn6cncn6)c6ccc(F)cc6F)nc5)cc4)CC3)cc2)c1=O` (single isomer, unassigned; (-)) [123(−)], for which, in assay [1], the “Aspergillus fumigatus MIC” value fell in the range of 0.25 to 1.0 µg/mL. Besides, the minimum inhibitory concentration (MIC) in assay [2] is 0.01 to 0.1 µg/mL (≈ 0.0132 to 0.132 µM).
For `CC[C@@H]([C@H](C)O)n1ncn(-c2ccc(N3CCN(c4ccc(-c5ccc(C(F)(F)[C@](O)(Cn6cnnn6)c6ccccc6F)nc5)cc4)CC3)cn2)c1=O` [102(−), 4-(5-(4-(4-(6-((R)-1,1-difluoro-2-(2-fluorophenyl)-2-hydroxy-3-(1H-tetrazol-1-yl)propyl)pyridin-3-yl)phenyl)piperazin-1-yl)pyridin-2-yl)-2-((2S,3S)-2-hydroxypentan-3-yl)-2,4-dihydro-3H-1,2,4-triazol-3-one], the “Aspergillus fumigatus MIC” value in assay [1] was more than 8 µg/mL. Also, in assay [2], the “Candida albicans MIC” value is 0.10 to 1.0 µg/mL.
Consider `OC(c1ccc(N2CCN(c3ccc(-c4ccc(C(F)(F)[C@](O)(Cn5cnnc5)c5ccc(F)cc5F)nc4)cc3)CC2)cc1)C(F)(F)F` (stereo partly drawn) [Example 16, (2R)-2-(2,4-difluorophenyl)-1,1-difluoro-3-(4H-1,2,4-triazol-4-yl)-1-(5-(4-(4-(4-(2,2,2-trifluoro-1-hydroxyethyl)phenyl)piperazin-1-yl)phenyl)pyridin-2-yl) propan-2-ol], for which the results for the MIC in assay [1] and in assay [2] were 0.25 to 1 µg/mL (≈ 0.364 to 1.46 µM) and 0.0078 to 0.01 µg/mL (≈ 0.0114 to 0.0146 µM), respectively.
For `OC(c1ccc(N2CCN(c3ccc(-c4ccc(C(F)(F)[C@](O)(Cn5cnnn5)c5ccc(F)cc5F)nc4)cc3)CC2)nc1)C(F)(F)F` (stereo partly drawn) [Example 34, (2R)-2-(2,4-difluorophenyl)-1,1-difluoro-3-(1H-tetrazol-1-yl)-1-(5-(4-(4-(5-(2,2,2-trifluoro-1-hydroxyethyl)pyridin-2-yl)piperazin-1-yl)phenyl)pyridin-2-yl) propan-2-ol] the same measures were 0.25 to 1 µg/mL (≈ 0.363 to 1.45 µM) and 0.0078 to 0.01 µg/mL (≈ 0.0113 to 0.0145 µM).
For `N#Cc1ccc(C(=O)N2CCN(c3ccc(-c4ccc(C(F)(F)[C@](O)(Cn5cnnn5)c5ccc(F)cc5F)nc4)cc3)CC2)cc1` [Example 23, (R)-4-(4-(4-(6-(2-(2,4-difluorophenyl)-1,1-difluoro-2-hydroxy-3-(1H-tetrazol-1-yl)propyl)pyridin-3-yl)phenyl)piperazine-1-carbonyl) benzonitrile] the same measures were more than 8 µg/mL and 0.0078 to 0.01 µg/mL (≈ 0.0121 to 0.0156 µM).
For `O[C@@](Cn1cnnn1)(c1ccc(F)cc1F)C(F)(F)c1ccc(-c2ccc(N3CCN(c4ccc(F)cc4)CC3)cc2)cn1` [Example 2, (R)-2-(2,4-difluorophenyl)-1,1-difluoro-1-(5-(4-(4-(4-fluorophenyl)piperazin-1-yl)phenyl)pyridin-2-yl)-3-(1H-tetrazol-1-yl) propan-2-ol] the same measures were 0.25 to 1 µg/mL (≈ 0.411 to 1.65 µM) and 0.0078 to 0.01 µg/mL (≈ 0.0128 to 0.0165 µM).
Consider `CC[C@@H]([C@H](C)O)n1ncn(-c2ccc(N3CCN(c4ccc(-c5ccc(C(F)(F)C(O)(Cn6cncn6)c6ccc(F)cc6F)nc5)cc4)CC3)cc2)c1=O` (single isomer, unassigned; (+)) [123(+)], for which the “Aspergillus fumigatus MIC” value in assay [1] was 0.062 to 0.25 µg/mL. In addition, the “Candida albicans MIC” value in assay [2] lay within 0.010 to 0.10 µg/mL.
As to `CC(O)c1ccc(N2CCN(c3ccc(-c4ccc(C(F)(F)[C@](O)(Cn5cnnn5)c5ccc(F)cc5F)nc4)cc3)CC2)cn1` (stereo partly drawn) [Example 44, (2R)-2-(2,4-difluorophenyl)-1,1-difluoro-1-(5-(4-(4-(6-(1-hydroxyethyl)pyridin-3-yl)piperazin-1-yl)phenyl)pyridin-2-yl)-3-(1H-tetrazol-1-yl) propan-2-ol], the MIC is 1 to 4 µg/mL (≈ 1.58 to 6.3 µM) in assay [1] and 0.0078 to 0.01 µg/mL (≈ 0.0123 to 0.0158 µM) in assay [2].
On to `CCC(C(C)O)n1ncn(-c2ccc(N3CCN(c4ccc(-c5ccc(C(F)(F)[C@](O)(Cn6cnnn6)c6ccc(F)cc6F)nc5)cc4)CC3)cc2)c1=O` (stereo partly shown) [Example 93], for which the MIC in assay [1] fell in the range of 0.25 to 1 µg/mL (≈ 0.329 to 1.32 µM); in assay [2], 0.0078 to 0.01 µg/mL (≈ 0.0103 to 0.0132 µM).
Consider `OC(c1ccc(N2CCN(c3ccc(-c4ccc(C(F)(F)C(O)(Cn5cnnn5)c5cc(F)ccc5F)nc4)cc3)CC2)cc1)C(F)(F)F` (stereo not drawn) [15(−), 2-(2,5-difluorophenyl)-1,1-difluoro-3-(1H-tetrazol-1-yl)-1-(5-(4-(4-(4-(2,2,2-trifluoro-1-hydroxyethyl)phenyl)piperazin-1-yl)phenyl)pyridin-2-yl) propan-2-ol], for which, in assay [1], the “Aspergillus fumigatus MIC” value is more than 8 µg/mL. The “Candida albicans MIC” value in assay [2] lay in the range of 0.10 to 1.0 µg/mL.
In the case of `CC[C@@H]([C@H](C)O)n1ncn(-c2ccc(N3CCN(c4ccc(-c5ccc(C(F)(F)[C@](O)(Cn6cnnn6)c6ccc(F)cc6F)nc5)cc4)CC3)cn2)c1=O` [Example 124, 4-(5-(4-(4-(6-((R)-2-(2,4-difluorophenyl)-1,1-difluoro-2-hydroxy-3-(1H-tetrazol-1-yl)propyl)pyridin-3-yl)phenyl)piperazin-1-yl)pyridin-2-yl)-2-((2S,3S)-2-hydroxypentan-3-yl)-2,4-dihydro-3H-1,2,4-triazol-3-one], in assay [1], the “Aspergillus fumigatus MIC” value lay within 0.25 to 1.0 µg/mL. Also, in assay [2], the MIC is 0.01 to 0.1 µg/mL (≈ 0.0132 to 0.132 µM).
With `CC(C)(C)CC(O)c1ccc(N2CCN(c3ccc(-c4ccc(C(F)(F)[C@](O)(Cn5cnnn5)c5ccc(F)cc5F)nc4)cc3)CC2)cn1` (stereo partly drawn) [Example 118, 1-(5-(4-(4-(6-((R)-2-(2,4-difluorophenyl)-1,1-difluoro-2-hydroxy-3-(1H-tetrazol-1-yl)propyl)pyridin-3-yl)phenyl)piperazin-1-yl)pyridin-2-yl)-3,3-dimethylbutan-1-ol], the MIC in assay [1] was 0.25 to 1 µg/mL (≈ 0.362 to 1.45 µM); in assay [2], 0.0078 to 0.01 µg/mL (≈ 0.0113 to 0.0145 µM).
Regarding `CC[C@@H]([C@H](C)O)n1ncn(-c2ccc(N3CCN(c4ccc(-c5ccc(C(F)(F)[C@](O)(Cn6cnnn6)c6ccc(F)cc6)nc5)cc4)CC3)cn2)c1=O` [109(−), (−)-4-(5-(4-(4-(6-((R)-1,1-difluoro-2-(4-fluorophenyl)-2-hydroxy-3-(1H-tetrazol-1-yl)propyl)pyridin-3-yl)phenyl)piperazin-1-yl)pyridin-2-yl)-2-((2S,3S)-2-hydroxypentan-3-yl)-2,4-dihydro-3H-1,2,4-triazol-3-one], the “Aspergillus fumigatus MIC” value in assay [1] fell in the range of 1.0 to 4.0 µg/mL. In assay [2], the “Candida albicans MIC” value lay within 0.10 to 1.0 µg/mL.
As to `OC(CC(F)(F)F)c1ccc(N2CCN(c3ccc(-c4ccc(C(F)(F)[C@](O)(Cn5cncn5)c5ccc(F)cc5F)nc4)cc3)CC2)cn1` (single isomer, unassigned; (-)) [120(−)], the “Aspergillus fumigatus MIC” value in assay [1] was in the range of 0.25 to 1.0 µg/mL. For the same compound, in assay [2], the MIC lay in the range of 0.01 to 0.1 µg/mL (≈ 0.0143 to 0.143 µM).
